The values that follow come from paper PMC10507113, “Function and phylogeny support the independent evolution of an ASIC-like Deg/ENaC channel in the Placozoa” (Communications Biology, 2023).

Each structure is given as a SMILES string.

The target of one test is T1, TadNaC2 (Trichoplax adhaerens, UniProt A0A5J6BSS6).
T1 construct: gene ASIC2; full-length cDNA cloned from whole-animal RNA, untagged in pIRES2-EGFP (pTadNaC2-IR-EGFP), CHO-K1 cells; homotrimer modelled; residues F70, T72, D75, E77, H80, E104, E105, H109, W165, F188, L198, R201, K203, S228, P229, W276, L332, S336, D413
T1 sequence (A0A5J6BSS6 1-548): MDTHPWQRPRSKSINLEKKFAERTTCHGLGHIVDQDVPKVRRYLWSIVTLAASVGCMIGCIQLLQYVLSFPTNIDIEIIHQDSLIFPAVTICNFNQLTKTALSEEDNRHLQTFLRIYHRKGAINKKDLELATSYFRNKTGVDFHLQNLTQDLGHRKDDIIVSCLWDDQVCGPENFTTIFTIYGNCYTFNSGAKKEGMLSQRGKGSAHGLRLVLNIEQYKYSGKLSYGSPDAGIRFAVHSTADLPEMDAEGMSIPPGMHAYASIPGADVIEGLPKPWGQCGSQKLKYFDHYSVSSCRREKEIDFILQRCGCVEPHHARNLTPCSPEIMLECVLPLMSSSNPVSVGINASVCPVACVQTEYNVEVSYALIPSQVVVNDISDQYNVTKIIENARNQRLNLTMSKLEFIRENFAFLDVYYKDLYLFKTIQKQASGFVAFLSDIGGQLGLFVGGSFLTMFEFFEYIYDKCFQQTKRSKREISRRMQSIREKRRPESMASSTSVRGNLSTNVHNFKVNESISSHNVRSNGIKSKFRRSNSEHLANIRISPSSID
Kind of test: whole-cell patch clamp, CHO-K1, amiloride dose-response of peak inward current. The format is cell-based. Background: Patch clamp records ionic current or voltage across a cell membrane.

In another test the target is T2, mouse ASIC1a (mASIC1a) (Mus musculus, UniProt Q6NXK8).
T2 construct: gene Asic1; synthetic full-length subunit, untagged in pIRES2-EGFP (pmASIC1-IR-EGFP), CHO-K1 cells; homotrimer
T2 sequence (Q6NXK8 1-526): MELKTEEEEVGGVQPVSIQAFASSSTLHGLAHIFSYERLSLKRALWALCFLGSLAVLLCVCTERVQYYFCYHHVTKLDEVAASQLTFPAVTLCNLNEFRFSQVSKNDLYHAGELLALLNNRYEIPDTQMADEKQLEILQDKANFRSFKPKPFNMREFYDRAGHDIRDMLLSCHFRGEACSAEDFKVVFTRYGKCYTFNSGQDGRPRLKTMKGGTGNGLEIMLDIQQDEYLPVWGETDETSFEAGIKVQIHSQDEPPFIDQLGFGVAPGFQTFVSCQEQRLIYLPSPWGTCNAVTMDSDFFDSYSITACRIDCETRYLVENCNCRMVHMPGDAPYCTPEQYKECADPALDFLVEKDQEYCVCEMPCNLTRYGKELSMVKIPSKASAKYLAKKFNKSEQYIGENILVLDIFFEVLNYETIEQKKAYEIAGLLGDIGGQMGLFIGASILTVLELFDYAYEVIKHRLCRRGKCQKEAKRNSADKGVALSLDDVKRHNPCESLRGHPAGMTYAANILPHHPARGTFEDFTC
Kind of test: whole-cell patch clamp, CHO-K1, single-dose block of peak inward current. The test is classed as cell-based. To be noted: read-out: % block at 3 mM.

Usually IC50 stands for the point on the concentration scale where inhibition reaches its midpoint. High values mean a need for much substance, low ones inhibition by little substance. Turning to `N=C(N)NC(=O)c1nc(Cl)c(N)nc1N` [amiloride], the IC50 on TadNaC2 is 52 ± 29.6 µM. In addition, the inhibition at 3000 µM on mouse ASIC1a (mASIC1a) was determined as 73 ± 4.1%.
